In patent publication US5001154A, “Fervescence composition” (K.K. Ueno Seiyaku Oyo Kenkyujo, priority 1987, dated 1991):

How the values were obtained:
[1] = fervescence activity by intravenous injection (rising of body temperature), 1 mg/kg; type: in vivo, Wister male rats; details: 1 mg/kg intravenous, urethane-anesthetized rats
Method: fervescence activity by intravenous injection Test animals were Wister male rats (8 weeks old) weighing 200±10 g. The rats were applied to anesthesia by intraperitoneal injection of 1.25 g/kg of urethane. Each test drug was dissolved into ethyl alcohol. The ethyl alcohol solution was diluted with Ringer's solution at least 50 times just before use and 1 mg/kg of the each test drug was intravenously administered. Body temperature was measured in the same manner as in Example 1. Ringer's solution containing ethyl alcohol was administered as control. Rising of body temperature is shown by the rising degree (°C.) from the temperature before administration.

[2] = sedation activity and rising of body temperature in dog; type: in vivo, hybrid adult dog; details: intravenous; for Rising of Body Temperature: 0.5 mg/kg
From the text: Sedation Activity A 19-methyl type compound having strong fervescence activity was compared with PGE2 […] sedation activity. A hybrid adult dog was held on a holder for dog and intravenously administered with a test drug dissolved in Ringer's solutions at the forefoot. Sedation activity was judged as follows: Sedation Degree 1: Disappearance of body movement 2: Closing of the eyes 3: Leaning on the holding belt

[3] = fervescence activity by intracerebroventricular injection (rising of body temperature); type: in vivo, Wister male rats; details: 400 ng in 3 μl into lateral ventricle, urethane-anesthetized rats, rectal temperature
Method: fervescence activity by intracerebroventricular injection
Wister male rats (8 weeks old) were used as test animals.
Rats were applied to anesthesia by intraperitoneal injection with 1.25 g/kg of urethane and a stainless guide cannula was inserted into the lateral ventricle for administration of a test drug according to Pellegrino's Rat brain atras.
Each test drug was dissolved into an artificial cerebrospinal fluid and 400 ng as drug in 3 μl was injected through the injection cannula for 15 seconds. The artificial cerebrospinal fluid alone was injected as control. Body temperature was measured continuously at the rectum. Rising of body temperature is shown by the rising degree (°C.) from the temperature before administration.

[4] = fervescence (recovery of body temperature) activity at hemorrhage load; type: in vivo, Wister male rats; details: rat loaded with hemorrhage
Method: fervescence (recovery of body temperature) activity at hemorrhage load
Wister male rats (weight: 200 g) were subcutaneously injected on the back with 1.5 g/kg of urethane, subjected to anesthesia. Hemorrhage was then induced by withdrawal of blood by puncture of the heart for the total volume of 3 ml equivalent to 1.5% of the body weight. After kept in a room for 60 minutes, the rats were administered intravenously with test solutions prepared by dissolving test drugs into Ringer's solution so as to administer the rat at a dose of 0.5 or 1 mg/kg, and change of the body temperature was observed. Ringer's solution was administered as control.
In the figures, (1), (2) and (3) correspond to the results of administration of doses 1 mg/kg, 0.5 mg/kg and Ringer's solution alone, respectively.

Compound	Rising of Body Temperature [1]	other results
CCCCCC(=O)CC[C@H]1[C@H](O)CC(=O)[C@@H]1CC(=O)CCCCC(=O)OCC (relative stereo) [compound 9]	+0.7 °C	
CCCCC[C@H](O)/C=C/[C@H]1[C@H](O)CC(=O)[C@@H]1C/C=C\CCCC(=O)OC [Test drug 59, PGE2 methyl ester, reference compound]		sedation activity (in words) [2]: clear sedation activity
CCCCCC(=O)CC[C@H]1[C@H](O)CC(=O)[C@@H]1CCCCCCC(=O)O [compound 1]	0 °C	Rising of Body Temperature [3]: +0.4 °C
CCCCCC(=O)CC[C@H]1[C@H](O)CC(=O)[C@@H]1CCCCC=CC(=O)O [compound 3]	0 °C	
CCCCCC(=O)CC[C@H]1[C@H](O)CC(=O)[C@@H]1CCCCC=CC(=O)OC [compound 4]	+0.8 °C	
CCCCCCCC(=O)CC[C@H]1[C@H](O)CC(=O)[C@@H]1CCCCCCC(=O)OC [compound 5]	+0.4 °C	
CCCCCC(=O)CC[C@H]1[C@H](O)CC(=O)[C@@H]1CC(=O)CCCCC(=O)O [compound 6]	0 °C	Rising of Body Temperature [3]: +0.8 °C
CCCCCC(=O)CC[C@H]1[C@H](O)CC(=O)[C@@H]1CC(=O)CCCCC(=O)OC [compound 7]	+0.8 °C	Rising of Body Temperature [3]: +0.6 °C
CCCCCC(=O)CC[C@H]1[C@H](O)CC(=O)[C@@H]1CC(=O)CCCCC(=O)OCC [compound 8]	+0.6 °C	Rising of Body Temperature [3]: +0.4 °C; Rising of Body Temperature ([4]; 0.5 mg/kg intravenous): +0.7 °C; Rising of Body Temperature ([4]; 1 mg/kg intravenous): +0.8 °C
CCCCCC(=O)CC[C@H]1[C@H](O)CC(=O)[C@@H]1CC(=O)CCCCC(=O)OCCCC [compound 10]	+0.2 °C	
CCCCC(C)C(=O)CC[C@H]1[C@H](O)CC(=O)[C@@H]1CC(=O)CCCCC(=O)OC (stereo partly drawn) [compound 11]	+1.5 °C	
CCCCC(C)C(=O)CC[C@H]1[C@H](O)CC(=O)[C@@H]1CC(=O)CCCCC(=O)OCC (stereo partly drawn) [compound 12]	+0.9 °C	
CCCCC(C)(C)C(=O)CC[C@H]1[C@H](O)CC(=O)[C@@H]1CC(=O)CCCCC(=O)OCC [compound 13]	+1.1 °C	
CCCCC(F)C(=O)CC[C@H]1[C@H](O)CC(=O)[C@@H]1CC(=O)CCCCC(=O)OCC (stereo partly drawn) [compound 14]	+1.0 °C	
COC(=O)CCCCC(=O)C[C@H]1C(=O)C[C@@H](O)[C@@H]1CCC(=O)CCCC(C)C [compound 15]	+0.7 °C	Rising of Body Temperature [2]: 1.2 °C
COC(=O)CCCCC(=O)C[C@H]1C(=O)C[C@@H](CO)[C@@H]1CCC(=O)CCCC(C)C [compound 17]	+0.4 °C	
CCCCCCC(=O)CC[C@H]1[C@H](O)CC(=O)[C@@H]1CC(=O)CCCCC(=O)OCC [compound 18]	+0.7 °C	Rising of Body Temperature ([4]; 0.5 mg/kg intravenous): +0.4 °C; Rising of Body Temperature ([4]; 1 mg/kg intravenous): +0.8 °C
CCCCCC(=O)CC[C@H]1[C@H](C)CC(=O)[C@@H]1CC(=O)CCCCC(=O)OC [compound 19]	+1.0 °C	
CCCCCC(=O)CC[C@H]1[C@H](C)CC(=O)[C@@H]1CC(=O)CCCCC(=O)OCC [compound 20]	+1.3 °C	Rising of Body Temperature ([4]; 0.5 mg/kg intravenous): +0.5 °C; Rising of Body Temperature ([4]; 1 mg/kg intravenous): +0.8 °C
CCCCC(F)C(=O)CC[C@H]1[C@H](C)CC(=O)[C@@H]1CC(=O)CCCCC(=O)OCC (stereo partly drawn) [compound 21]	+1.1 °C	
CCCCCC(=O)CC[C@H]1[C@H](O)CC(=O)[C@@H]1C/C=C\CCCC(=O)O [compound 22]	0 °C	Rising of Body Temperature [3]: +0.7 °C
CCCCCC(=O)CC[C@H]1[C@H](O)CC(=O)[C@@H]1C/C=C\CCCC(=O)OCc1ccccc1 [compound 27]	+0.3 °C	
CCCCCC(=O)CC[C@H]1[C@H](O)CC(=O)[C@@H]1C/C=C\CCCC(=O)OCCO [compound 28]	+0.4 °C	
CCCCCC(=O)CC[C@H]1[C@H](O)CC(=O)[C@@H]1C/C=C\CC=CC(=O)OC [compound 29]	+1.0 °C	
CCCCCC(=O)CC[C@H]1[C@H](O)CC(=O)[C@@H]1C/C=C\CC(C)CC(=O)OC (stereo partly drawn) [compound 30]	+1.7 °C	
CCCCCC(=O)CC[C@H]1[C@H](O)CC(=O)[C@@H]1C/C=C\CC(C)CC(=O)OCC (stereo partly drawn) [compound 31]	+1.0 °C	
CCCCC(C)C(=O)CC[C@H]1[C@H](O)CC(=O)[C@@H]1C/C=C\CCCC(=O)OC (stereo partly drawn) [compound 32]	+1.4 °C	

Compound	Rising of Body Temperature [1]	other results
CCCCC(C)C(=O)CC[C@H]1[C@H](O)CC(=O)[C@@H]1C/C=C\CCCC(=O)OCC (stereo partly drawn) [compound 33]	+0.9 °C	
CCCCC(C)C(=O)CC[C@H]1[C@H](O)CC(=O)[C@@H]1C/C=C\CC(C)CC(=O)OC (stereo partly drawn) [compound 34]	+1.0 °C	
CCCCC(C)(C)C(=O)CC[C@H]1[C@H](O)CC(=O)[C@@H]1C/C=C\CCCC(=O)OC [compound 35]	+1.0 °C	
CCCCC(C)(C)C(=O)CC[C@H]1[C@H](O)CC(=O)[C@@H]1C/C=C\CCCC(=O)OCC [compound 36]	+0.6 °C	
CCCCC(O)C(=O)CC[C@H]1[C@H](O)CC(=O)[C@@H]1C/C=C\CCCC(=O)OCC (stereo partly drawn) [compound 37]	+0.2 °C	
CCCCC(F)C(=O)CC[C@H]1[C@H](O)CC(=O)[C@@H]1C/C=C\CCCC(=O)O (stereo partly drawn) [compound 38]	+0.3 °C	
CCCCC(F)C(=O)CC[C@H]1[C@H](O)CC(=O)[C@@H]1C/C=C\CCCC(=O)OC (stereo partly drawn) [compound 39]	+0.9 °C	
CCCCC(F)C(=O)CC[C@H]1[C@H](O)CC(=O)[C@@H]1C/C=C\CCCC(=O)OCC (stereo partly drawn) [compound 40]	+1.4 °C	
CCCCCC(F)C(=O)CC[C@H]1[C@H](O)CC(=O)[C@@H]1C/C=C\CCCC(=O)OC (stereo partly drawn) [compound 41]	+0.8 °C	
CCCCC(F)C(=O)CC[C@H]1[C@H](C)CC(=O)[C@@H]1C/C=C\CCCC(=O)OCC (stereo partly drawn) [compound 42]	+1.4 °C	
CCCCCC(=O)CC[C@H]1[C@H](C)CC(=O)[C@@H]1C/C=C\CCCC(=O)OCC [compound 43]	+0.2 °C	
CCC[C@H](C)CC(=O)CC[C@H]1[C@H](O)CC(=O)[C@@H]1C/C=C\CCCC(=O)OC [compound 44]	+0.2 °C	
COC(=O)CCC/C=C\C[C@H]1C(=O)C[C@@H](O)[C@@H]1CCC(=O)CCCC(C)C [compound 45]	+2.0 °C	Rising of Body Temperature [2]: 0.5 °C
CCOC(=O)CCC/C=C\C[C@H]1C(=O)C[C@@H](O)[C@@H]1CCC(=O)CCCC(C)C [compound 46]	+0.6 °C	
COCCCCCC(=O)CC[C@H]1[C@H](O)CC(=O)[C@@H]1C/C=C\CCCC(=O)OC [compound 47]	+0.3 °C	
COCCCCCC(=O)CC[C@H]1[C@H](O)CC(=O)[C@@H]1C/C=C\CC=CC(=O)OC [compound 48]	+0.2 °C	
COCCCCCC(=O)CC[C@H]1[C@H](O)CC(=O)[C@@H]1C/C=C\CC(C)CC(=O)OC (stereo partly drawn) [compound 49]	+0.2 °C	
COCCCCC(C)(C)C(=O)CC[C@H]1[C@H](O)CC(=O)[C@@H]1C/C=C\CCCC(=O)OC [compound 50]	+0.2 °C	
CC(C)=CCCCCC(=O)CC[C@H]1[C@H](O)CC(=O)[C@@H]1C/C=C\CCCC(=O)O [compound 51]	+0.2 °C	
COC(=O)CCC/C=C\C[C@H]1C(=O)C[C@@H](O)[C@@H]1CCC(=O)CCCCC=C(C)C [compound 52]	+0.2 °C	
CCCCCCCC(=O)CC[C@H]1[C@H](O)CC(=O)[C@@H]1C/C=C\CCCC(=O)OC [compound 53]	+0.5 °C	
CCCCCCCC(=O)CC[C@H]1[C@H](O)CC(=O)[C@@H]1C/C=C\CCCC(=O)OCC [compound 54]	+0.2 °C	
CCCCCCCC(=O)CC[C@H]1[C@H](C)CC(=O)[C@@H]1C/C=C\CCCC(=O)OC [compound 55]	+0.2 °C	
CCCCC(F)C(=O)/C=C/[C@H]1[C@H](O)CC(=O)[C@@H]1C/C=C\CCCC(=O)OC (stereo partly drawn) [compound 56]	+1.0 °C	
CCCCC[C@H](O)/C=C/[C@H]1[C@H](O)CC(=O)[C@@H]1CCCCCCC(=O)O [compound 57]	0 °C	
CCCCC[C@H](O)/C=C/[C@H]1[C@H](O)CC(=O)[C@@H]1C/C=C\CCCC(=O)O [compound 58]	+0.7 °C	
